According to ChEMBL document CHEMBL3886958, “Substituted B-amino acid derivatives as CXCR3 receptor antagonists” (2016):

Target: T1, C-X-C chemokine receptor type 3 (Homo sapiens, UniProt P49682)
T1 sequence (P49682 whole entry): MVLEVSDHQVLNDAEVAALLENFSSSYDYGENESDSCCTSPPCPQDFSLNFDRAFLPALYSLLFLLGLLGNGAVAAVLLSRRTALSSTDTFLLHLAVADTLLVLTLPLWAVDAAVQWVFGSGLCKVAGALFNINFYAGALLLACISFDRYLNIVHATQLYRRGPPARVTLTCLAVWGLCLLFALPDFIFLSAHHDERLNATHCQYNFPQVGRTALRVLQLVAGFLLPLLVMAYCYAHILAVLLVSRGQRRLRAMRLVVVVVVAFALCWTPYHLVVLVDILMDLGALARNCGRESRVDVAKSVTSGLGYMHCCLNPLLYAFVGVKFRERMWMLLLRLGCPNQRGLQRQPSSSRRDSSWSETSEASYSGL

Compound	IC50
CCCN(Cc1ccc(OCCN2C(=O)CCC2=O)c(CC)c1)C(CC(=O)O)c1ccc(Cl)c(Cl)c1 (centres undefined)	81 nM
COc1cc(CN(CC2CCCC2)C(C(=O)O)c2ccc(Cl)cc2)ccc1OCCN1C(=O)CCC1=O (centres undefined)	467 nM
CCN(Cc1ccc(OCCN2C(=O)CCC2=O)c(OC)c1)C(c1ccc(Cl)cc1)C(C)(C)C(=O)O (centres undefined)	295 nM
COc1cc(CN(CC2CCCC2)C(CC(=O)O)c2ccc(Cl)cc2)ccc1CCCN1C(=O)CCC1=O (centres undefined)	179 nM
CCOC(=O)CC(c1ccc2c(c1)CCO2)N(Cc1ccc(OCCN2C(=O)CCC2=O)c(OC)c1)CC(C)C (centres undefined)	686 nM
COc1cc(CN(CC2CCCCC2)[C@@H](CC(=O)O)c2ccc(Cl)c(Cl)c2)ccc1OCCN1C(=O)CN(C)C1=O	187 nM
COc1cc(CN(CC2CC2)C(CC(=O)O)c2ccc(Cl)c(F)c2)ccc1SCCN1C(=O)CCC1=O (centres undefined)	40 nM
CCCN(Cc1ccc(OCCN2C(=O)CCC2=O)c(OC)c1)[C@H](C(=O)O)c1ccc(Cl)c(Cl)c1	495 nM
O=C(O)CC(c1ccc(Cl)c(Cl)c1)N(Cc1ccc(OCCN2C(=O)CCC2=O)c(F)c1)CC1CCCCC1 (centres undefined)	435 nM
